This is an account of results in patent publication US10512627B2, “Anti-tumor compound and the medical use thereof” (Tianjin Medical University Cancer Institute and Hospital, priority 2014, dated 2019).

pIC50: −log10 of the molar value. Like-named read-outs stand apart in the source and are kept apart here.

A short description of one series: Solubility. The conditions noted are these: dry ethanol, methanol, chloroform, dimethylformamide, dimethylsulfoxide. It is filed as physicochemical.
The subject of a further series is MDA-MB-231 cells. Description: MTT assay, proliferation of MDA-MB-231 (Example 11). It is filed as cell-based. To be noted: Homo sapiens, 48 h. The method, then: The half inhibitory concentration of (S)2-(4′-methyl-3′-nitrobenzoylamino)-3-phenylpropionic acid for MDA-MB-231 cells was tested by MTT assay.
2) 5 mg/mL MTT solution was prepared with sterilized PBS, filtered with 0.22 um film, and then diluted with medium to 1 mg/mL. The medium in the 96-well plate was discarded, and 100 μL 1 mg/mL MTT working solution was add, followed by continuous culturing for 5 h.
3) MTT working solution was discarded, and 150 μL DMSO was added to each well (note: to away from light), and then the plate was shaken on the horizontal shaker at 170 rpm for 10 min, followed by detecting the absorbance at 490 nm with microplate reader.
Background: Tetrazolium dyes change colour on reduction, which living cells bring about.

Series [1] deals with human lung adenocarcinoma cell A549. As to the kind of experiment: Scratch test, migration of A549 (Example 4). The conditions noted are these: 4 and 100 μmol/L, 0-36 h. The series is classed as cell-based. The method, then: The inhibiting ability of (S)2-(4′-methyl-3′-nitrobenzoylamino)-3-phenylpropionic acid for the migration of human lung adenocarcinoma cell A549 was tested by scratch test.
A549 cells in logarithmic growth phase were plated in the 6-well plate with the density of 5×10^5/3 mL, and after 12 h, the drug was added, with 100 μL per well. The final concentrations of (S)2-(4′-methyl-3′-nitrobenzoylamino)-3-phenylpropionic acid (TCI04) were 4 and 100 μmol/L respectively. The negative control was 100 μL sterilized water with 2% DMSO and the positive control was 4, 100 μmol/L 4-methyl-3-nitrobenzoic acid (TCI01). After 36 h, the medium was removed, and after washing 3 times with PBS, 3 ml culture medium without fetal bovine serum and 100 μL drug (concentration was as above) per well were added. 6 h later, 200 μL tips were used to scratch, and after washing 4 times with PBS, 3 ml medium without fetal bovine serum per well was added. The distance of cell migration was recorded every 3 h under the inverted microscope, and photos were taken at 0 h and 36 h.

Series [2] is described as follows: Mice acute toxicity assay, intravenous administration (Example 9). To be noted: both sexes, Kunming, mouse, in vivo, Bliss algorithm. The method, then: The median lethal dose of (S)2-(4′-methyl-3′-nitrobenzoylamino)-3-phenylpropionic acid via intravenous administration was tested by mice acute toxicity assay.
1) Mice grouping, Kunming mice of clean grade, 10 weeks old, 30˜40 g body weight, 10 mice for each group, half male and half female.
2) 10 groups in total, concentration distance between groups was 0.88. Sterilized water was added to the mother liquid II for dosage form administrated by intravenous injection to formulate into the required concentration and 0.2 ml was intravenously injected for each mouse, following 14 days observation. The dosage of administration for each group and the death numbers were recorded as follows: […]

The test system of series [3] is human breast cancer cell MDA-MB-231. Description: Transwell invasion assay through Matrigel (Example 5). It is filed as cell-based. The method, then: The inhibiting ability of (S)2-(4′-methyl-3′-nitrobenzoylamino)-3-phenylpropionic acid for the invasion of human breast cancer cell MDA-MB-231 was tested by Transwell invasion assay.
1) Gel placement into the Transwell chamber: Matrigel was melted under ice-bath of 4° C. overnight, and diluted with pre-cooled serum free DMEM medium at a ratio of 1:3. Transwell chamber was put in the 24-well plate, and 50 μL gel solution was added per chamber, stayed at 37° C. for 1 h, then 200 μL serum free DMEM medium was added and stayed for 15 min to make the gel reconstitute, and finally the medium was removed for stand-by;
2) MDA-MB-231 cells in logarithmic growth phase were plated in 6-well plate with the density of 1×10^6/3 mL, and after 12 h, the drug was added, with 100 μL per well. The final concentrations of (S)2-(4′-methyl-3′-nitrobenzoylamino)-3-phenylpropionic acid were 1, 2, and 4 μmol/L, respectively. The negative control was 100 μL sterilized water with 2% DMSO and the positive control was 1 μmol/L 4-methyl-3-nitrobenzoic acid. After 12 h, the medium was removed, followed by washing 3 times with PBS, and 3 ml medium without fetal bovine serum and 100 μL drug (concentration is as above) per well were added. […] The cell number was counted and the cells were seeded at the density of 2×10^5/200 μL into the Transwell chamber with the Matrigel. […]

Another series has as its system Lewis lung cancer cells. As to the kind of experiment: Lewis lung cancer metastasis model in mice (Example 8). It is filed as in vivo, C57BL/6 mouse. To be noted: 50, 25, 5 mg/kg intragastric, twice a day, 21 days; P<0.01. The method, then: 5) A lung cancer model of mouse is established by subcutaneous inoculation of Lewis lung cancer cells in C57BL/6 mouse, because of the characteristic of Lewis lung cancer cell of specific metastasis toward the lung, and the ability of a drug for inhibiting the metastasis of the tumor cells may be determined by counting the number of the metastatic tumors on lung.
The ability of (S)2-(4′-methyl-3′-nitrobenzoylamino)-3-phenylpropionic acid for inhibiting tumor metastasis in vivo was tested by Lewis lung cancer metastasis model in mice.
1) Mice grouping, C57BL/6 of SPF grade, 5 weeks old, 18˜22 g, 8 mice for each group. half male and half female;
2) The mother liquid of (S)2-(4′-methyl-3′-nitrobenzoylamino)-3-phenylpropionic acid for dosage form for oral administration was diluted with 1.5% CMC-Na solution to 5 mg/mL, 2.5 mg/mL, 0.5 mg/mL. The dosage for administration in mice was as follows, high dosage group of 50 mg/kg; Medium dosage group of 25 mg/kg; low dosage group of 5 mg/kg. The negative control was 1.5% CMC-Na solution; The positive control was 10 mg/mL of dosage form of 4-methyl-3-nitrobenzoic acid for oral administration, with dosage for administration of 100 mg/kg; […]
5) After the completion of the experiment, the mice were sacrificed and the lungs were made into paraffin tissue sections, then stained by HE and the number of tumors were counted under microscope;

In the case of `Cc1ccc(C(=O)N[C@@H](Cc2ccccc2)C(=O)O)cc1[N+](=O)[O-]` [(S)2-(4′-methyl-3′-nitrobenzoylamino)-3-phenylpropionic acid], the “solubility in organic solvents” value in the series “Solubility” is listed as “highly soluble”. In the series with MDA-MB-231 cells, the pIC50 is 2.61. In series [1], the “inhibition of migration ability (coalescence speed of cell scratch vs negative control)” value is given as “significantly inhibited”. For the same compound, the LD50 at 14 days is 269 mg/kg in series [2] (read-out: LD50) and 249 to 291 mg/kg in series [2] (read-out: LD50 95% confidence limits). Moreover, the “invaded cell number compared to the negative control” value in series [3] (1, 2, 4 μmol/L, 24 h, P<0.01) is “significantly less than the negative control”. In addition, in series [3] (2, 4 μmol/L, P>0.05), the “invaded cell number compared to the positive control (1 μmol/L 4-methyl-3-nitrobenzoic acid)” value is reported as “no significant difference”. Further, the “number of the tumors on the lungs compared with the negative control” value in the series on Lewis lung cancer cells is recorded as “very significant difference”.

A word on the pIC50: it is the negative decadic logarithm of the IC50, by convention in mol/L. Broadly, the LD50 is the dose expected to kill half of the subjects tested.
